Like-named read-outs stand apart in the source and are kept apart here.
Assays:
[1] = molecular target: T1, EGFR wild type (Homo sapiens, UniProt P00533); assay: Inhibition of EGFR wild type biochemical enzymatic activity (HTRF); conditions: 1 mM ATP
T1 construct: purchased Carna Bio
Summary of the method: (§1)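 Time-resolved FRET assay of EGFR substrate phosphorylation. Conditions: 1 μM TK substrate-biotin, 1 mM ATP, Mg/Mn buffer, 1 h at RT. IC50 from 4-parameter curve fit.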

[2] = molecular target: T2, EGFR L858R (Homo sapiens, UniProt P00533, L858R); assay: Inhibition of EGFR L858R biochemical enzymatic activity (HTRF); conditions: 1 mM ATP
T2 construct: purchased Carna Bio
Summary of the method: as §1

[3] = molecular target: T3, EGFR L858R/T790M (Homo sapiens, UniProt P00533, L858R/T790M); assay: Inhibition of EGFR L858R/T790M biochemical enzymatic activity (HTRF); conditions: 1 mM ATP
T3 construct: purchased Carna Bio
Summary of the method: as §1

[4] = molecular target: T4, EGFR Exon19Del (Homo sapiens, UniProt P00533, DEL746-750); assay: Inhibition of EGFR Exon19Del biochemical enzymatic activity (HTRF); conditions: read-out: IC50 @Del19
T4 construct: purchased Carna Bio
Summary of the method: as §1

[5] = molecular target: T5, EGFR Exon19Del/T790M (Homo sapiens, UniProt P00533, DEL746-750/T790M); assay: Inhibition of EGFR Exon19Del/T790M biochemical enzymatic activity (HTRF); conditions: 1 mM ATP
T5 construct: purchased Carna Bio
Summary of the method: as §1

[6] = molecular target: T6, EGFR[T790M/C797S/L858R] (Homo sapiens, UniProt P00533, C797S/L858R/T790M); assay: Inhibition of EGFR[T790M/C797S/L858R] biochemical enzymatic activity (HTRF); conditions: 1 mM ATP
T6 construct: purchased Carna Bio
Summary of the method: as §1

[7] = molecular target: T7, EGFR[T790M/C797S/d746-750] (Homo sapiens, UniProt P00533, C797S/DEL746-750/T790M); assay: Inhibition of EGFR[T790M/C797S/d746-750] biochemical enzymatic activity (HTRF)
T7 construct: purchased Carna Bio
Summary of the method: as §1

[8] = molecular target: T8, EGFR (d746-750 C797S) (Homo sapiens, UniProt P00533, C797S/DEL746-750); assay: Inhibition of EGFR (d746-750 C797S) biochemical enzymatic activity (HTRF); conditions: 1 mM ATP
T8 construct: purchased signalchem
Summary of the method: as §1

[9] = molecular target: T9, EGFR (C797S L858R) (Homo sapiens, UniProt P00533, C797S/L858R); assay: Inhibition of EGFR (C797S L858R) biochemical enzymatic activity (HTRF); conditions: 1 mM ATP
T9 construct: purchased signalchem
Summary of the method: as §1

[10] = tested on: Ba/F3 cells expressing EGFR mutations; assay: Cell proliferation assay, Ba/F3 cells expressing EGFR mutations (CellTiter-Glo, 72 hours); format: cell-based
Summary of the method: (§2)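 Growth over 72 h was quantified by CellTiter-Glo luminescence, normalised as (G3 − G0)/(DMSO G3 − G0), for PC-9 cells seeded at 500/well and EGFR-mutant Ba/F3 cells at 5000/well in RPMI1640. Compound concentration series added after overnight incubation; GI50 obtained from best-fit curves.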

[11] = tested on: PC-9; assay: Cell proliferation assay, PC-9 cells (CellTiter-Glo, 72 hours); format: cell-based; conditions: PC9 cells, read-out: GI50 PC9
Summary of the method: as §2

[12] = tested on: A-431; assay: Cell proliferation assay, A-431 cells (GI50, Table 6); format: cell-based
Procedure: [Worded in the source for another cell line; this cell line is reported under the same test.] Ba/F3 cells expressing EGFR mutations were seeded in 384-well plates at 5000 cells/well in RPMI1640 medium containing […]. PC-9 at 500 cells/well was seeded into 384-well plates in RPMI1640 medium with 10% FBS. After overnight incubation, the assay plates were dosed with compounds at a series of concentrations. Alongside dosing the assay plates, the day 0 plate was processed using CellTiter-Glo® Luminescent Cell Viability Assay (Promega) to measure the number of viable cells (G0). The assay plates were further incubated for 72 hours and the number of viable cells (G3) was measured. The percentage of proliferation was calculated as: […]=100×(G3 value of sample well−G0 value)/(G3 value of DMSO control−G0 value). The concentration of compound producing 50% proliferation inhibition (GI50) was further calculated in best-fit curves using XLFit software. N/A=not available.

[13] = EGFR wild type, 1 h at room temperature, read-out: IC50 @WT
[14] = 1 h at room temperature, read-out: IC50 @L858R
[15] = EGFR L858R/T790M, 1 h at room temperature, read-out: IC50 @L858R-T790M
[16] = EGFR Exon19Del, 1 mM ATP, 1 h at room temperature
[17] = EGFR Exon19Del/T790M, 1 h at room temperature, read-out: IC50 @Del19-T790M
[18] = EGFR[T790M/C797S/L858R], 1 h at room temperature, read-out: IC50 @T790M- C797S - L858R
[19] = EGFR[T790M/C797S/d746-750], 1 mM ATP, 1 h at room temperature, read-out: IC50 @T790M - C797S - Del19
[20] = EGFR (d746-750 C797S), 1 h at room temperature, read-out: IC50 @Del19-C797S
[21] = EGFR (C797S L858R), 1 h at room temperature, read-out: IC50 @L858-C797S
[22] = BaF3 cells, EGFR DEL19 - C797S, read-out: GI50 DEL19 - C797S/BaF3
[23] = BaF3 cells, EGFR DEL19 - T790-C797S, read-out: GI50 DEL19 - T790-C797S/BaF3
[24] = BaF3 cells, EGFR L858R - C797S, read-out: GI50 L858R - C797S/BaF3
[25] = BaF3 cells, EGFR L858R - T790-C797S, read-out: GI50 L858R - T790-C797S/BaF3
[26] = BaF3 cells, EGFR L858R - T790M, read-out: GI50 L858R - T790M/BaF3
[27] = BaF3 cells, EGFR L858R, read-out: GI50 L858R/BaF3
[28] = EGFR DEL19 - T790M, read-out: GI50 DEL19 - T790M
[29] = Mus musculus, BaF3, 72 h, BaF3 cells, EGFR DEL19 - C797S, read-out: GI50 DEL19 - C797S/BaF3
[30] = Mus musculus, BaF3, 72 h, BaF3 cells, EGFR DEL19 - T790-C797S, read-out: GI50 DEL19 - T790-C797S/BaF3
[31] = Mus musculus, BaF3, 72 h, BaF3 cells, EGFR L858R - C797S, read-out: GI50 L858R - C797S/BaF3
[32] = Mus musculus, BaF3, 72 h, BaF3 cells, EGFR L858R - T790-C797S, read-out: GI50 L858R - T790-C797S/BaF3
[33] = Mus musculus, BaF3, 72 h, BaF3 cells, EGFR L858R - T790M, read-out: GI50 L858R - T790M/BaF3
[34] = Mus musculus, BaF3, 72 h, BaF3 cells, EGFR L858R, read-out: GI50 L858R/BaF3
[35] = Mus musculus, BaF3, 72 h, EGFR DEL19 - T790M, read-out: GI50 DEL19 - T790M
[36] = Homo sapiens, A-431, A-431 cells

T9 sequence (P00533 25-1210 C797S/L858R): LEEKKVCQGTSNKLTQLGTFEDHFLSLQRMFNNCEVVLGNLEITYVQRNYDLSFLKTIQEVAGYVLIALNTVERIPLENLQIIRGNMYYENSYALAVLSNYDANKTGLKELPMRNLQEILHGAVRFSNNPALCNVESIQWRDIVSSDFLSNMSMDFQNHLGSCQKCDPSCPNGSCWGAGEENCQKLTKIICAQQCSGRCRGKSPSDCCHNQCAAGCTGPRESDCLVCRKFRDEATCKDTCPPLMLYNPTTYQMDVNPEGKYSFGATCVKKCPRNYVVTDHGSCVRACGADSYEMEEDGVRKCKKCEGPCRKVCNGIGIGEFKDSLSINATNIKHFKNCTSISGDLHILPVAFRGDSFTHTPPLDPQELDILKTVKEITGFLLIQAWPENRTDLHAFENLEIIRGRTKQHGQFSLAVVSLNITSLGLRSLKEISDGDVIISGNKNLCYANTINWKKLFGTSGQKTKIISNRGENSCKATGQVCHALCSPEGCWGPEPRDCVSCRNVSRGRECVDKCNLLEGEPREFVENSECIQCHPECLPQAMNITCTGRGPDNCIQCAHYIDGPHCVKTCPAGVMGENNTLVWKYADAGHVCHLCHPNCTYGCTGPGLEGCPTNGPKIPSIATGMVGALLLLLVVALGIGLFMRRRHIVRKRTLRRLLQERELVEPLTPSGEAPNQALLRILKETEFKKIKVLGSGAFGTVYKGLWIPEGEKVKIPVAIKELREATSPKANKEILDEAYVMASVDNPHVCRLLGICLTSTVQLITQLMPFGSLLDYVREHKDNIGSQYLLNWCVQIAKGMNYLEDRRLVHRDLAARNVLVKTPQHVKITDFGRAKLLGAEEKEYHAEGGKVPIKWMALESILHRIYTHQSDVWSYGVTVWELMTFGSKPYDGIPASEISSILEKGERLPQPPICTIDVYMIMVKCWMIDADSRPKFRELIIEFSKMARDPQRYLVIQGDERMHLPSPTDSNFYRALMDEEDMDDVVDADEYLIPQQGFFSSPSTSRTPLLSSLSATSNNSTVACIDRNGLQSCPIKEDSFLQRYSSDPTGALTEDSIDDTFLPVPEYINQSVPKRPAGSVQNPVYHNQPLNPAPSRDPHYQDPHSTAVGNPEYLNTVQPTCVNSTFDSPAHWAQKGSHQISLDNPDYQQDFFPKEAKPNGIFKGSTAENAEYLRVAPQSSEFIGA
T3 sequence (P00533 25-1210 T790M/L858R): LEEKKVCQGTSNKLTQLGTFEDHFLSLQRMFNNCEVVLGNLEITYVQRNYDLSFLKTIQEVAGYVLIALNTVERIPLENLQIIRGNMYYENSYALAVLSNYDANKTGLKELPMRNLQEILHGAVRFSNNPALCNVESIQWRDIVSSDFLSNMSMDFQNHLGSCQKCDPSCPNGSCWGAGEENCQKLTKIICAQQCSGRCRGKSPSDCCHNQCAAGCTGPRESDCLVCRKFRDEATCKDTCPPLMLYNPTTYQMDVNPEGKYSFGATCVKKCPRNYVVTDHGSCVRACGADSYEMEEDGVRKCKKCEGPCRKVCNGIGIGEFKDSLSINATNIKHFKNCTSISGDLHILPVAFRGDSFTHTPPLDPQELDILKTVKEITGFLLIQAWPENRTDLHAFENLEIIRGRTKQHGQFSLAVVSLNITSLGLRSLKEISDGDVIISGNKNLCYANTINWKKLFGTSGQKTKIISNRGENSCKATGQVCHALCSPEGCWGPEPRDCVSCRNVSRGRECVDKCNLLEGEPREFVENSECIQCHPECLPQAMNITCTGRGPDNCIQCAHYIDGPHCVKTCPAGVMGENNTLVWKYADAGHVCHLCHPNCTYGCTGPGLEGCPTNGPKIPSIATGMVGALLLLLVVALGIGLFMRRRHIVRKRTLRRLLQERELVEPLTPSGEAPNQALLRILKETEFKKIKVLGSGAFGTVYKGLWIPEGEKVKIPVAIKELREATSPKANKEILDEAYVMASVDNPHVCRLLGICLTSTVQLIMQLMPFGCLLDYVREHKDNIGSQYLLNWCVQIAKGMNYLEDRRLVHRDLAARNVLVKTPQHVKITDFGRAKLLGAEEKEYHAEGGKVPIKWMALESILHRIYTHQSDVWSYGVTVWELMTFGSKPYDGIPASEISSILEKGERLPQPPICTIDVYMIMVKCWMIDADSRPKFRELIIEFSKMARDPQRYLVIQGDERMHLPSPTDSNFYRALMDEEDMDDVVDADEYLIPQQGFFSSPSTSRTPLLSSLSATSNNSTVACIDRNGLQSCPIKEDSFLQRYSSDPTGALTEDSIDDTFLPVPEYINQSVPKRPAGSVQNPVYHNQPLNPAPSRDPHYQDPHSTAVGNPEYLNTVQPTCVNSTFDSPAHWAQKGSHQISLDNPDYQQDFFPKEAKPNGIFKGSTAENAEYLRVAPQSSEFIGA
T6 sequence (P00533 25-1210 T790M/C797S/L858R): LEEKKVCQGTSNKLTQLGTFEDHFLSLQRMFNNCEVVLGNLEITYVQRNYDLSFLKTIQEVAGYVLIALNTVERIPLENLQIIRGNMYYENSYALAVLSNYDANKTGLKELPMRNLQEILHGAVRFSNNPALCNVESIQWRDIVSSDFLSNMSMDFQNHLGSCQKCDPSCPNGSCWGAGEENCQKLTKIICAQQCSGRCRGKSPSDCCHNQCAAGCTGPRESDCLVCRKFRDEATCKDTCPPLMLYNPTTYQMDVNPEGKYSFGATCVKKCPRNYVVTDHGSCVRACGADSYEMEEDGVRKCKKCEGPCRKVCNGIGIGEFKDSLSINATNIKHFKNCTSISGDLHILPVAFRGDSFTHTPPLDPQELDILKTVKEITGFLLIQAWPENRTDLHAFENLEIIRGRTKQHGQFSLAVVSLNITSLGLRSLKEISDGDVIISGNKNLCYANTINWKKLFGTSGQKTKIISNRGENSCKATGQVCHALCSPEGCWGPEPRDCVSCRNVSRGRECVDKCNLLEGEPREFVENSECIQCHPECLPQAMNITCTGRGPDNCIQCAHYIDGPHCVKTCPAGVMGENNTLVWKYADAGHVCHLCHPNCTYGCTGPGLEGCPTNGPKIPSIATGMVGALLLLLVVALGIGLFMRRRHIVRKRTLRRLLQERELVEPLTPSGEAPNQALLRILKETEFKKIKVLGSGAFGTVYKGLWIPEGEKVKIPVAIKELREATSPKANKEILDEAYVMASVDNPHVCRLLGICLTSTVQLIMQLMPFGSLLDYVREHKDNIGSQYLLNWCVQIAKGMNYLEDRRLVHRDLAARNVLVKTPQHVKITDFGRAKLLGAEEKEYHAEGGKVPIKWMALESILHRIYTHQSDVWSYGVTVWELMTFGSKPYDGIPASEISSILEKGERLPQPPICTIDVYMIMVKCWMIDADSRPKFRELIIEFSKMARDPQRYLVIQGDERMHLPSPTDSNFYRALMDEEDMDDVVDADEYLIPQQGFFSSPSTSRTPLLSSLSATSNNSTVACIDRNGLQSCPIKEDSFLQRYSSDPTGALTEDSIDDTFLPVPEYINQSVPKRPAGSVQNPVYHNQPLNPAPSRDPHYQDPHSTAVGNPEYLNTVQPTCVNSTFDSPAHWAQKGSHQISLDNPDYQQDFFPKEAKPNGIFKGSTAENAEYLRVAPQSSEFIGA
T2 sequence (P00533 25-1210 L858R): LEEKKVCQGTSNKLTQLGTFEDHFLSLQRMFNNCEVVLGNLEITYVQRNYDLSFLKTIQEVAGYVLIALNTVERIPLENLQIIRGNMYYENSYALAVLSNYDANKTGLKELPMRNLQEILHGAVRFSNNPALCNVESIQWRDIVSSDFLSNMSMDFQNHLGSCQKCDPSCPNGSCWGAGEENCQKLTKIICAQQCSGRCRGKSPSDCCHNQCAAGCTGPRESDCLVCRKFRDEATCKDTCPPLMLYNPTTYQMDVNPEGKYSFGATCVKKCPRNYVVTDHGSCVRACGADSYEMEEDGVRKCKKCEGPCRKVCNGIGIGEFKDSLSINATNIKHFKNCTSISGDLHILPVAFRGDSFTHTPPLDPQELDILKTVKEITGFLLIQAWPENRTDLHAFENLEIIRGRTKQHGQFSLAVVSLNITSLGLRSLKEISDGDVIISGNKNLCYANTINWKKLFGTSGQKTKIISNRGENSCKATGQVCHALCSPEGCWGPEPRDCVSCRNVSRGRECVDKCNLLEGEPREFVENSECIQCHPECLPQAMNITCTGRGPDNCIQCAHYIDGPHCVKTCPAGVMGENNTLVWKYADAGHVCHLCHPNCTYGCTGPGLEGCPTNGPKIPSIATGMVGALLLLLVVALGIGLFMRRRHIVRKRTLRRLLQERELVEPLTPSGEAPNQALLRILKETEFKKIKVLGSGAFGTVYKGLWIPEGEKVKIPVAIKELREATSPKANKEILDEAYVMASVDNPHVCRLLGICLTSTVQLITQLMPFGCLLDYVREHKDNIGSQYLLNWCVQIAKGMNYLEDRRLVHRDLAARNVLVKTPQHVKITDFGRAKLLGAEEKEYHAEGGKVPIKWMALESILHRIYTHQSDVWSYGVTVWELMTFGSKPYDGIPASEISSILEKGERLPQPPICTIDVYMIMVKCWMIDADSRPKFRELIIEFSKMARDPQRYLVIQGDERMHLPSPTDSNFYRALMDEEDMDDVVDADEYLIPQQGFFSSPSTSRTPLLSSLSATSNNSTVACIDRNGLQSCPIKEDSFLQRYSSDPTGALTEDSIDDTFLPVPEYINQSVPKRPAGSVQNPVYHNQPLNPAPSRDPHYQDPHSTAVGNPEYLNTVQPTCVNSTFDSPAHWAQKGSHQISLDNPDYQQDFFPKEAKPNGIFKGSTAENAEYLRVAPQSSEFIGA

Structure (SMILES)	IC50 [1, 13] [nM]	IC50 [2, 14] [nM]	IC50 [3, 15] [nM]	IC50 [4, 16] [nM]	IC50 [5, 17] [nM]	IC50 [6, 18] [nM]	IC50 [7, 19] [nM]	IC50 [8, 20] [nM]	IC50 [9, 21] [nM]	GI50 [10, 22] [nM]	GI50 [10, 23] [nM]	GI50 [10, 24] [nM]	GI50 [10, 25] [nM]	GI50 [10, 26] [nM]	GI50 [10, 27] [nM]	GI50 [10, 28] [nM]	GI50 [11] [nM]	GI50 ([12]; A-431 cells) [nM]	GI50 [10, 29] [nM]	GI50 [10, 30] [nM]	also measured
Cc1cc2cc(n1)-c1cnn(C)c1OCCN1CC3CCC(C3)(C1)n1c(nc3ccc(N4CCC5(CC4)CCN5C)cc31)NC2=O (single isomer, unassigned) [Example B54A]	> 5000	> 5000	> 5000	> 5000	647	> 5000	233	4720	> 5000	280	241	584	107	298	801	527	515	3410			
Cc1cc2cc(n1)-c1cnn(C)c1OCCN1CC3CCC(C3)(C1)n1c(nc3ccc(N4CCN(C)CC4)cc31)NC2=O (stereo not drawn) [Example B9B, 15,21-Dimethyl-5-(4-methylpiperazin-1-yl)-23-oxa-2,9,11,16,20,21,26-heptaazaheptacyclo[24.4.1.1^{1,28}.1^{13,17}.0^{2,10}.0^{3,8}.0^{18,22}]tritriaconta-3,5,7,9,13,15,17(33),18(22),19-nonaen-12-one]	114	7.4	1.1	1.4	1.3	1	1.4	0.73	3.3										0.58	0.59	GI50 [10, 31]: 3.2 nM; GI50 [10, 32]: 0.6 nM; GI50 [10, 33]: 0.83 nM; GI50 [10, 34]: 2.7 nM; GI50 [10, 35]: 0.6 nM; GI50 ([11]; Homo sapiens, PC-9, 72 h): 6.1 nM; GI50 [12, 36]: 366 nM
Cc1cc2cc(n1)-c1cnn(C)c1OCCN1CC3CCC(C3)(C1)n1c(nc3ccc(N4CCC5(CC4)CCN5C)cc31)NC2=O (single isomer, unassigned) [Example B54B]	121	13	3.1	4.9	3.9	1.6	2.5	2	3.9	2	2	2	2	2	2	6	3	795			
Cc1cc2cc(n1)-c1cnn(C)c1OCCN1CC3CCC(C3)(C1)n1c(nc3ccc(N4CCOCC4)cc31)NC2=O (single isomer, unassigned) [Example B10A, 15,21-Dimethyl-5-(morpholin-4-yl)-23-oxa-2,9,11,16,20,21,26-heptaazaheptacyclo[24.4.1.1^{1,28}.1^{13,17}.0^{2,10}.0^{3,8}.0^{18,22}]tritriaconta-3,5,7,9,13,15,17(33),18(22),19-nonaen-12-one]	3370	212	2.6	4.6	2.8	2.6	2.2	2.3	59	0.79	0.84	18	0.91	2.1	24	0.89	41	1730			
CN(C)C1CCN(c2ccc3nc4n(c3c2)C23CCC(CC2)CN(CCOc2c(cnn2C)-c2cc(cn(C)c2=O)C(=O)N4)C3)CC1 [Example A119, 5-[4-(dimethylamino)piperidin-1-yl]-15,21-dimethyl-23-oxa-2,9,11,15,20,21,26-heptaazaheptacyclo[26.2.2.1^{1,26}.1^{13,17}.0^{2,10}.0^{3,8}.0^{18,22}]tetratriaconta-3,5,7,9,13,17(34),18(22),19-octaene-12,16-dione]																			1.5	11	IC50 ([1]; EGFR WT, 1 h, room temperature, read-out: IC50 (nM) @WT): 1060 nM; IC50 ([2]; 1 h, room temperature, read-out: IC50 (nM) @L858R): 38 nM; IC50 ([3]; EGFR L858R-T790M, 1 h, room temperature, read-out: IC50 (nM) @L858R-T790M): 32 nM; IC50 ([4]; EGFR Del19, 1 mM ATP, 1 h, room temperature): 7.6 nM; IC50 ([5]; EGFR Del19-T790M, 1 h, room temperature, read-out: IC50 (nM) @Del19-T790M): 6.6 nM; IC50 ([6]; EGFR T790M-C797S-L858R, 1 h, room temperature, read-out: IC50 (nM) @T790M- C797S - L858R): 9 nM; IC50 ([7]; EGFR T790M-C797S-Del19, 1 mM ATP, 1 h, room temperature, read-out: IC50 (nM) @T790M - C797S - Del19): 3 nM; IC50 ([8]; EGFR Del19-C797S, 1 h, room temperature, read-out: IC50 (nM) @Del19-C797S): 4.7 nM; IC50 ([9]; EGFR L858-C797S, 1 h, room temperature, read-out: IC50 (nM) @L858-C797S): 19 nM; GI50 [10, 31]: 11 nM; GI50 [10, 32]: 6.6 nM; GI50 [10, 33]: 15 nM; GI50 [10, 34]: 2.1 nM; GI50 [10, 35]: 7.3 nM; GI50 ([11]; Homo sapiens, PC-9, 72 h): 11 nM; GI50 [12, 36]: 1070 nM
